Activity calls are given as the source filed them. The rule behind the calls is not given here.
Columns and labels:
[1] = test system: Salmonella typhimurium; assay: Antibiofilm activity in Salmonella Typhimurium ATCC 14028 assessed as inhibition of biofilm formation at 25 degC after 24 hrs; assay type: functional, organism-based, Salmonella enterica subsp. enterica serovar Typhimurium; details: Salmonella enterica, ATCC 14028, 24 h
[2] = test system: Pseudomonas aeruginosa; assay: Antibiofilm activity in Pseudomonas aeruginosa assessed as inhibition of biofilm formation at 25 degC after 24 hrs; assay type: functional, organism-based
[3] = test system: Pseudomonas aeruginosa; assay: Antimicrobial activity against Pseudomonas aeruginosa assessed as inhibition of planktonic growth at 10 uM at 25 degC after 24 hrs; assay type: functional, organism-based
[4] = test system: Pseudomonas aeruginosa; assay: Antimicrobial activity against Pseudomonas aeruginosa assessed as inhibition of planktonic growth at 5 uM at 25 degC after 24 hrs; assay type: functional, organism-based
[5] = test system: Pseudomonas aeruginosa; assay: Antimicrobial activity against Pseudomonas aeruginosa assessed as inhibition of planktonic growth at 20 uM at 25 degC after 24 hrs; assay type: functional, organism-based
[6] = test system: Salmonella typhimurium; assay: Antimicrobial activity against Salmonella Typhimurium ATCC 14028 assessed as inhibition of planktonic growth at 10 uM at 25 degC after 24 hrs; assay type: functional, organism-based; details: Salmonella enterica subsp. enterica serovar Typhimurium
[7] = test system: Salmonella typhimurium; assay: Antimicrobial activity against Salmonella Typhimurium ATCC 14028 assessed as inhibition of planktonic growth at 4 uM at 25 degC after 24 hrs; assay type: functional, organism-based; details: Salmonella enterica subsp. enterica serovar Typhimurium
[8] = test system: Salmonella typhimurium; assay: Antimicrobial activity against Salmonella Typhimurium ATCC 14028 assessed as inhibition of planktonic growth at 20 uM at 25 degC after 24 hrs; assay type: functional, organism-based; details: Salmonella enterica subsp. enterica serovar Typhimurium
[9] = test system: Salmonella typhimurium; assay: Antimicrobial activity against Salmonella Typhimurium ATCC 14028 assessed as inhibition of planktonic growth at 40 uM at 25 degC after 24 hrs; assay type: functional, organism-based; details: Salmonella enterica subsp. enterica serovar Typhimurium
[10] = test system: Pseudomonas aeruginosa; assay: Antimicrobial activity against Pseudomonas aeruginosa assessed as inhibition of planktonic growth at 40 uM at 25 degC after 24 hrs; assay type: functional, organism-based
[11] = test system: Salmonella typhimurium; assay: Antimicrobial activity against Salmonella Typhimurium ATCC 14028 assessed as inhibition of planktonic growth at 400 uM at 25 degC after 24 hrs; assay type: functional, organism-based; details: Salmonella enterica subsp. enterica serovar Typhimurium

SMILES | IC50 [1] | IC50 [2] | inhibition [3] | inhibition [4] | inhibition [5] | inhibition [6] | inhibition [7] | inhibition [8] | inhibition [9] | inhibition [10] | inhibition [11]
Nc1ncc(-c2ccc(Cl)cc2)n1C1CCCCCC1 | 15.7 µM | 4 µM | inactive | inactive | inactive |  |  |  |  |  | 
CCCCCCCC[n+]1c(-c2ccc(-c3ccc(-c4ccccc4)cc3)cc2)cn2cccnc21.[O-][Cl+3]([O-])([O-])[O-] | 5 µM |  |  |  |  | Active | inactive |  |  |  | 
CCCCCCCCCCCCn1c(-c2ccc(Cl)cc2)cnc1N | 6.2 µM | 49.7 µM |  |  |  | inactive | inactive | inactive |  |  | 
CCCCCCCCn1c(-c2ccc(Cl)cc2)cnc1N | 5.9 µM | 4 µM | Active | inactive | Active | Active | Active | Active |  |  | 
CCCCCCCC[n+]1c(-c2ccc(OC)cc2)cn2cccnc21.[O-][Cl+3]([O-])([O-])[O-] | 34.8 µM | 8.7 µM | inactive |  | inactive |  |  | Active | Active | inactive | 
O=[N+]([O-])c1ccc(-c2cn3cccnc3[n+]2C2CCCCCCCCCCC2)cc1.[O-][Cl+3]([O-])([O-])[O-] | 9.8 µM | 15.1 µM | inactive |  | Active | inactive |  | inactive |  | Active | 
CCCCCCCCCCCCCn1c(-c2ccc(-c3ccccc3)cc2)cnc1N | > 800 µM | > 400 µM |  | inactive |  |  |  |  |  | inactive | 
CCCCCCCC[n+]1c(-c2ccc(SC)cc2)cn2cccnc21.[O-][Cl+3]([O-])([O-])[O-] | 20.7 µM | 9.3 µM |  |  | inactive |  |  | Active | Active | Active | 
Nc1ncc(-c2ccc(Cl)cc2)n1C1CCCCC1 | 33.2 µM | 11.2 µM |  | inactive | inactive |  |  |  |  | inactive | 
CCCCCCCCCn1c(-c2ccccc2)cnc1N | 6 µM | 8.4 µM | inactive | inactive | Active | Active | inactive | Active |  |  | 
CCCCCCCCn1c(-c2cccc3ccccc23)cnc1N | 6.6 µM | 17.6 µM | inactive |  | Active | inactive | inactive |  |  |  | 
CCCCCCCCn1c(-c2ccc(F)cc2)cnc1N | 10.8 µM | 4.9 µM | Active | inactive | Active | inactive |  | Active |  |  | 
CCCCCCCCCCCCCn1c(-c2ccccc2)cnc1N | 6 µM | 27.3 µM |  |  | inactive | Active | inactive |  | Active | inactive | 
Nc1nc(-c2ccccc2)c(-c2ccc(C(F)(F)F)cc2)[nH]1 | 29.2 µM |  |  |  |  |  | inactive |  | inactive |  | Active
CCCCCCCCCn1c(-c2ccc(Cl)cc2)cnc1N | 4 µM | 8 µM | inactive |  | Active | Active | inactive | Active |  |  | 
CCCCCCCC[n+]1c(-c2ccc(F)c(F)c2)cn2cccnc21.[O-][Cl+3]([O-])([O-])[O-] | 3.8 µM | 12.7 µM | Active |  | Active | Active | inactive |  |  | Active | 
Nc1ncc(-c2ccc(-c3ccccc3)cc2)n1C1CCCCCCC1 | 22.9 µM | 3.2 µM | inactive | inactive | inactive |  |  | Active |  | inactive | 
CCCCCCCCn1c(-c2ccc(Cl)c(Cl)c2)cnc1N | 3.7 µM |  |  |  |  | Active | inactive |  |  |  | 
CCCCn1c(-c2ccccc2)cnc1N | 51.9 µM | 2.1 µM | inactive | inactive |  |  |  |  |  |  | 

SMILES | IC50 [1] | IC50 [2] | inhibition [3] | inhibition [4] | inhibition [5] | inhibition [6] | inhibition [7] | inhibition [8] | inhibition [9] | inhibition [10] | inhibition [11]
CCCCCCCCCCCn1c(-c2ccc(Cl)cc2)cnc1N | 4.1 µM | 44 µM |  |  |  | Active | inactive | Active |  |  | 
CCCCCCCn1c(-c2ccccc2)cnc1N | 12.2 µM | 6.8 µM |  | inactive | inactive |  |  |  |  | inactive | 
CCCCCCCCCCn1c(-c2ccccc2)cnc1N | 6.1 µM | 15 µM | inactive |  | inactive | Active | inactive | Active |  |  | 
CCCCCCCCn1c(-c2ccc(-c3ccccc3)cc2)cnc1N | 3.3 µM | 8.9 µM | inactive |  | inactive |  | inactive | Active | Active |  | 
CCCCCCCCCCCCn1c(-c2ccc(-c3ccccc3)cc2)cnc1N | 167 µM | > 400 µM |  | inactive |  |  |  |  |  | inactive | 
CCCCCCCCn1c(-c2ccc(SC)cc2)cnc1N | 6.7 µM | 2.8 µM | Active | inactive | Active | Active | inactive |  |  |  | 
CCCCCCCCCCCn1c(-c2ccccc2)cnc1N | 7.2 µM | 16.3 µM | inactive |  | inactive | Active | inactive |  | Active |  | 
CCCCCCCC[n+]1c(-c2ccc([N+](=O)[O-])cc2)cn2cccnc21.[O-][Cl+3]([O-])([O-])[O-] | 63.6 µM | 18.7 µM | inactive |  | inactive |  |  |  |  | Active | 
CCCCCCCn1c(-c2ccc(Cl)cc2)cnc1N | 9.5 µM | 2.6 µM | Active | inactive |  | Active | inactive |  |  |  | 
Nc1ncc(-c2ccc(Cl)cc2)n1C1CCCCCCC1 | 12.9 µM | 48.7 µM |  |  |  | inactive |  | Active | Active |  | 
CC(C)n1c(-c2ccccc2)cnc1N | 176 µM | 4.5 µM | inactive | inactive |  |  |  |  |  |  | 
CCCCCCCC[n+]1c(-c2ccc(F)cc2)cn2cccnc21.[O-][Cl+3]([O-])([O-])[O-] | 35.7 µM | 19.5 µM |  |  | inactive |  |  | inactive | inactive | Active | 
Nc1ncc(-c2ccc(-c3ccccc3)cc2)n1C1CCCCC1 | 12.6 µM | 69.7 µM |  |  |  | inactive |  | Active | Active |  | 
CCCCCCCC[n+]1c(-c2cccc3ccccc23)cn2cccnc21.[O-][Cl+3]([O-])([O-])[O-] | 6 µM | 6.8 µM | Active | inactive | Active | Active | inactive |  |  | Active | 
CCCCCCn1c(-c2ccc(Cl)cc2)cnc1N | 4.9 µM | 5.4 µM | inactive | inactive |  | Active | Active |  |  |  | 
CCCCCCCCn1c(-c2ccc(S(C)(=O)=O)cc2)cnc1N | 29.1 µM | 4.9 µM |  |  | inactive |  |  | inactive | Active |  | 
CCCCCCCCCCn1c(-c2ccc(Cl)cc2)cnc1N | 4.1 µM | 22.3 µM |  |  | inactive | Active | inactive |  |  | inactive | 
Nc1nc(-c2ccc(F)cc2)c(C(=O)Nc2ccccc2)[nH]1 | 182 µM |  |  |  |  |  | inactive |  | inactive |  | Active
CCCCCCCC[n+]1c(-c2ccc(-c3ccc([N+](=O)[O-])cc3)cc2)cn2cccnc21.[O-][Cl+3]([O-])([O-])[O-] | 1.5 µM | 1 µM | Active | Active | Active | Active | Active |  |  | Active | 

— ChEMBL document CHEMBL1649413, “Structure-activity relationship of 4(5)-aryl-2-amino-1H-imidazoles, N1-substituted 2-aminoimidazoles and imidazo[1,2-a]pyrimidinium salts as inhibitors of biofilm formation by Salmonella typhimurium and Pseudomonas aeruginosa” (J Med Chem, 2011)
